In turn, `*C(=O)Oc1ccc(C(C)(C)c2ccc(OC(=O)c3ccc4c(c3)C(=O)N(c3ccc(O)c(N5C(=O)c6ccc(*)cc6C5=O)c3)C4=O)cc2)cc1` (repeat unit) returned a glass transition temperature of 225.00 °C. On to `*C(=O)Oc1ccc(C(C)(C)c2ccc(OC(=O)c3ccc4c(c3)C(=O)N(c3cccc(N5C(=O)c6ccc(*)cc6C5=O)c3)C4=O)cc2)cc1` (repeat unit), for which the glass transition temperature turned out to be 225.00 °C. Compound `*C(=O)c1ccc2c(c1)C(=O)N(c1cccc(OP(=O)(Oc3cccc(N4C(=O)c5ccc(*)cc5C4=O)c3)c3ccccc3)c1)C2=O` (repeat unit) registered a glass transition temperature of 176.50 °C. `*C(=O)c1ccc2c(c1)C(=O)N(c1cccc(P(=O)(c3cccc(N4C(=O)c5ccc(*)cc5C4=O)c3)c3cc(C(F)(F)F)cc(C(F)(F)F)c3)c1)C2=O` (repeat unit) gave a glass transition temperature of 243.00 °C. For `*CC(COc1ccc(C(C)(C)c2ccc(O*)cc2)cc1)OC(=O)c1ccccc1Cl` (repeat unit) the value was 66.00 °C.

With `*CC(O)CN(CC(O)COc1ccc(C(C)(C)c2ccc(O*)cc2)cc1)c1ccc(C#N)cc1` (repeat unit), the glass transition temperature came to 100.00 °C.

Regarding `*CC(O)CN(Cc1ccccc1)CC(O)COc1ccc(C(C)(C)c2ccc(O*)cc2)cc1` (repeat unit), the glass transition temperature amounted to 94.2 °C. The compound `*CC(O)COC(=O)C1CCC(C(=O)OCC(O)COc2ccc(C(C)(C)c3ccc(O*)cc3)cc2)CC1` (repeat unit) yielded a glass transition temperature of 70.00 °C.

For the compound `*CC(O)COC(=O)CCCCC(=O)OCC(O)COc1ccc(C(C)(C)c2ccc(O*)cc2)cc1` (repeat unit), the glass transition temperature is 34.00 °C. The compound `*CC(O)COc1ccc(C(C)(C)c2ccc(O*)cc2)cc1` (repeat unit) showed a glass transition temperature of 91.00 °C. As for `*CC(O)COc1ccc(C(C)(C)c2ccc(OCC(O)COc3ccc(C4(c5ccc(O*)cc5)c5ccccc5-c5ccccc54)cc3)cc2)cc1` (repeat unit), the glass transition temperature is 161.00 °C. The compound `*CC(O)COc1ccc(C(C)(C)c2ccc(OCC(O)COc3ccc(NC(=O)CCCCCC(=O)Nc4ccc(O*)cc4)cc3)cc2)cc1` (repeat unit) displayed a glass transition temperature of 116.00 °C.

`*CC(O)COc1ccc(C(C)(C)c2ccc(OCC(O)COc3ccc(S(=O)(=O)c4ccc(O*)c(C)c4)cc3C)cc2)cc1` (repeat unit) registered a glass transition temperature of 117.50 °C. Compound `*CC(O)COc1ccc(C(C)(C)c2ccc(OCC(O)COc3cccc(C(=O)Nc4cccc(O*)c4)c3)cc2)cc1` (repeat unit) displayed a glass transition temperature of 117.00 °C. The compound `*CC(O)COc1ccc(C(C)(C)c2ccc(OCC(O)COc3cccc(NC(=O)CCCCC(=O)Nc4cccc(O*)c4)c3)cc2)cc1` (repeat unit) had a glass transition temperature of 103.00 °C.

Turning to `*CC(O)COc1ccc(C(C)(C)c2ccc(OCC(O)COc3cccc(NC(=O)CCCCCC(=O)Nc4cccc(O*)c4)c3)cc2)cc1` (repeat unit), the glass transition temperature came to 107.00 °C. The compound `*CC(O)COc1ccc(C(C)(CC)c2ccc(O*)cc2)cc1` (repeat unit) came in with a glass transition temperature of 95.00 °C.

For the compound `*CC(O)COc1ccc(S(=O)(=O)c2ccc(OCC(O)COc3ccc(S(=O)(=O)c4ccc(O*)c(C)c4)cc3C)cc2)cc1` (repeat unit), the glass transition temperature amounted to 142.50 °C. Compound `*CCCCCCCCOc1ccc(C(c2ccc(O*)cc2)(C(F)(F)F)C(F)(F)F)cc1` (repeat unit) gave a glass transition temperature of 27.80 °C. The compound `*CCCOCCCCOCCCN1C(=O)c2ccc(C(=O)Oc3ccc(C(C)(C)c4ccc(OC(=O)c5ccc6c(c5)C(=O)N(*)C6=O)cc4)cc3)cc2C1=O` (repeat unit) yielded a glass transition temperature of 60.00 °C. Under `*COc1ccc(C(C)(C)c2ccc(O*)cc2)cc1` (repeat unit) stands 90.00 °C; under `*OP(=O)(Oc1ccc(C(C)(C)c2ccc(*)cc2)cc1)Oc1c(Cl)c(Cl)c(Cl)c(Cl)c1Cl` (repeat unit), 130.00 °C; under `*OP(=O)(Oc1ccc(C(C)(C)c2ccc(*)cc2)cc1)Oc1c(Cl)cccc1Cl` (repeat unit), 96.00 °C. For `*OP(=O)(Oc1ccccc1)Oc1ccc(C(C)(C)c2ccc(*)cc2)cc1` (repeat unit), the glass transition temperature was determined as 74.50 °C. Compound `*OS(=O)(=O)c1cccc(S(=O)(=O)Oc2ccc(C(C)(C)c3ccc(*)cc3)cc2)c1` (repeat unit) had a glass transition temperature of 124.00 °C.

`*O[Si](C)(C)OC(CCl)COc1ccc(C(C)(C)c2ccc(OCC(*)CCl)cc2)cc1` (repeat unit) registered a glass transition temperature of 24.00 °C. For `*O[Si](Oc1ccc(C2(c3ccc(*)c(C)c3)c3ccccc3-c3ccccc32)cc1C)(c1ccccc1)c1ccccc1` (repeat unit) the value was 171.00 °C; for `*Oc1ccc(-c2ccc(OC(*)(Oc3ccccc3)Oc3ccccc3)c(C)c2)cc1C` (repeat unit), 125.00 °C. On to `*Oc1ccc(C(C)(C)c2ccc(OC(=O)c3ccc(C(*)=O)cc3)c(CCCC)c2)cc1CCCC` (repeat unit), for which the glass transition temperature is 160.00 °C. In turn, `*Oc1ccc(C(C)(C)c2ccc(OC(=O)c3ccc(C(*)=O)cc3)c(Cl)c2)cc1Cl` (repeat unit) gave a glass transition temperature of 190.00 °C. Compound `*Oc1ccc(C(C)(C)c2ccc(OC(=O)c3ccc(C(C)(C)c4ccc(C(*)=O)cc4)cc3)cc2)cc1` (repeat unit) returned a glass transition temperature of 230.00 °C. As to `*Oc1ccc(C(C)(C)c2ccc(OC(=O)c3ccc(Cc4ccc(C(*)=O)cc4)cc3)cc2)cc1` (repeat unit), the glass transition temperature was found to be 205.00 °C. Take `*Oc1ccc(C(C)(C)c2ccc(OC(=O)c3ccc(OCCCCCCCCCCOc4ccc(C(*)=O)cc4)cc3)cc2)cc1` (repeat unit): the glass transition temperature worked out at 77.00 °C. Under `*Oc1ccc(C(C)(C)c2ccc(OC(=O)c3ccc(Oc4ccc(C(*)=O)cc4)cc3)cc2)cc1` (repeat unit) stands 220.00 °C.

The compound `*Oc1ccc(C(C)(CC(C)C)c2ccc(OC(*)=S)cc2)cc1` (repeat unit) had a glass transition temperature of 128.00 °C.

The compound `*Oc1ccc(C(C)(CC)c2ccc(OC(*)=S)cc2)cc1` (repeat unit) showed a glass transition temperature of 102.00 °C.

In turn, `*Oc1ccc(C(CC)(CC)c2ccc(OC(=O)c3ccc(C(*)=O)cc3)cc2)cc1` (repeat unit) yielded a glass transition temperature of 180.00 °C. For `*Oc1ccc(C(CCC)c2ccc(OC(*)=S)cc2)cc1` (repeat unit) the value was 130.00 °C; for `*Oc1ccc(C2(c3ccc(OC(=O)c4cccc(C(*)=O)c4)c(C)c3)c3ccccc3-c3ccccc32)cc1C` (repeat unit), 287.00 °C; for `*Oc1ccc(S(=O)(=O)c2ccc(OC3(F)C(*)(F)C(F)(F)C3(F)F)cc2)cc1` (repeat unit), 162.20 °C. With `*c1c(F)c(F)c(-c2c(F)c(F)c(Oc3ccc(-c4nn(*)c(=O)c5ccccc45)c(F)c3)c(F)c2F)c(F)c1F` (repeat unit), the glass transition temperature was determined as 253.00 °C.

Consider `*c1cc(C(c2ccc(OCCN(C)c3ccc(/C=C/C4=CC(=C(/C#N)C(=O)OCCc5ccccc5)/CC(C)(C)C4)cc3)c(N3C(=O)c4ccc(Oc5ccc6c(c5)C(=O)N(*)C6=O)cc4C3=O)c2)(C(F)(F)F)C(F)(F)F)ccc1OCCN(c1ccccc1)c1ccc(/C=C/C2=CC(=C(/C#N)C(=O)OCCc3ccccc3)/CC(C)(C)C2)cc1` (repeat unit), for which the glass transition temperature turned out to be 177.00 °C. As for `*c1cc(C(c2ccc(OCCN(C)c3ccc(/C=C/C4=CC(=C(/C#N)S(C)(=O)=O)/CC(C)(C)C4)cc3)c(N3C(=O)c4ccc(Oc5ccc6c(c5)C(=O)N(*)C6=O)cc4C3=O)c2)(C(F)(F)F)C(F)(F)F)ccc1OCCN(C)c1ccc(/C=C/C2=CC(=C(/C#N)S(C)(=O)=O)/CC(C)(C)C2)cc1` (repeat unit), the glass transition temperature came out at 225.00 °C. In turn, `*c1cc(C(c2ccc(OCCN(c3ccccc3)c3ccc(/C=C/C4=CC(=C(/C#N)S(C)(=O)=O)/CC(C)(C)C4)cc3)c(N3C(=O)c4ccc(Oc5ccc6c(c5)C(=O)N(*)C6=O)cc4C3=O)c2)(C(F)(F)F)C(F)(F)F)ccc1OCCN(c1ccccc1)c1ccc(/C=C/C2=CC(=C(/C#N)S(C)(=O)=O)/CC(C)(C)C2)cc1` (repeat unit) came in with a glass transition temperature of 234.00 °C. `*c1ccc(Cc2ccc(N3C(=O)C(Cl)=C(Oc4ccc(C(C)(C)c5ccc(OC6=C(Cl)C(=O)N(*)C6=O)cc5)cc4)C3=O)cc2)cc1` (repeat unit): the glass transition temperature was determined as 172.00 °C. `*c1ccc(OC(=O)c2cccc(C(=O)Oc3ccc(C4(*)NC(=O)c5ccccc54)cc3)c2)cc1` (repeat unit) came in with a glass transition temperature of 325.00 °C. Turning to `*c1ccc(OC(=O)c2cccc(C(=O)Oc3ccc(C4(*)c5ccccc5C(=O)N4C)cc3)c2)cc1` (repeat unit), the glass transition temperature amounted to 285.00 °C. For `*c1ccc(OCCCCCCN(CC)c2ccc(C(C#N)=C(C#N)C#N)cc2)c(-c2cc(-c3ccccc3)c3cc(Oc4ccc5nc(*)cc(-c6ccccc6)c5c4)ccc3n2)c1` (repeat unit) the value was 175.00 °C; for `*c1ccc(Oc2ccc(N3C(=O)C(Cl)=C(Oc4ccc(C(C)(C)c5ccc(OC6=C(Cl)C(=O)N(*)C6=O)cc5)cc4)C3=O)cc2)cc1` (repeat unit), 175.00 °C.

As for `*c1ccc2c(c1)C(=O)N(c1cc(N3C(=O)c4ccc(C(*)(C(F)(F)F)C(F)(F)F)cc4C3=O)ccc1OCCCCCCOc1ccc(-c3ccc(OCC)cc3)cc1)C2=O` (repeat unit), the glass transition temperature worked out at 150.30 °C.

The compound `*c1ccc2c(c1)C(=O)N(c1cc(N3C(=O)c4ccc(C(*)(C(F)(F)F)C(F)(F)F)cc4C3=O)ccc1OCCCCCCOc1ccc(/N=N/c3ccc(OCC)cc3)cc1)C2=O` (repeat unit) had a glass transition temperature of 198.00 °C. For the compound `*c1cccc(P(=O)(c2ccccc2)c2cccc(N3C(=O)c4ccc(NC(=O)OCCOc5ccc(C(C)(C)c6ccc(OCCOC(=O)Nc7ccc8c(c7)C(=O)N(*)C8=O)cc6)cc5)cc4C3=O)c2)c1` (repeat unit), the glass transition temperature worked out at 220.00 °C. As to `*c1cccc(P(C)(=O)c2cccc(N3C(=O)c4ccc(NC(=O)OCCOc5ccc(C(C)(C)c6ccc(OCCOC(=O)Nc7ccc8c(c7)C(=O)N(*)C8=O)cc6)cc5)cc4C3=O)c2)c1` (repeat unit), the glass transition temperature was determined as 211.00 °C.

These data come from the PolyMetriX glass transition set.
